In brackets after ≈: the same amount, converted by molar mass. Where two headings read alike, the source gives them in different places.
What was measured:
[1] = Aqueous solubility in Ringer's buffer at pH 7.5 (HPLC); type: physicochemical
Experimental: A known excess weight of the compound was shaken overnight with a known volume of Ringer's buffer (bicarbonate buffer containing sodium, potassium, calcium and magnesium ions, initially adjusted to pH 7.5). The contents were filtered, and the clear filtrate was analyzed after appropriate dilution using HPLC (UV absorbance detection).

S. agalactiae = experiment: In vitro antibacterial activity, agar dilution MIC; type: cell-based; conditions: Streptococcus agalactiae, 18 h; S. agalactiae CMX 508 (Table 1)
P. aeruginosa = experiment: In vitro antibacterial activity, agar dilution MIC; type: cell-based; conditions: Pseudomonas aeruginosa, 18 h
C. difficile = experiment: In vitro antibacterial activity, agar dilution MIC; type: cell-based; conditions: Clostridioides difficile
K. pneumoniae = experiment: In vitro antibacterial activity, agar dilution MIC; type: cell-based, Klebsiella pneumoniae
S. pyogenes = experiment: In vitro antibacterial activity, agar dilution MIC; type: cell-based; conditions: Streptococcus pyogenes, 18 h, S. pyogenes M79061-98
[2] = Oral pharmacokinetics, blood level by disk agar diffusion bioassay; type: in vivo, Mice; conditions: for serum concentrations / blood levels (in words): versus analogs A and B at 100 mg/kg
Experimental: Mice were administered the quantity of compound indicated orally, as a single dose. At the specified time intervals, blood was collected from groups of five mice. All samples were assayed by a disk agar diffusion bioassay procedure. Bacillus subtilis 6633 or Klebsiella pneumoniae 10032 were used as the assay organisms, and seek agar medium No. 1 (BBL Microbiology Systems; Cockeysville, MD) was the growth medium. The plates were incubated at 32° C for 18 h and read with an image analyzer (Optomax Inc.).

S. aureus = experiment: In vitro antibacterial activity, agar dilution MIC; type: cell-based; conditions: Staphylococcus aureus
Experimental: (§1) The in vitro antibacterial activity of the test compound was determined by conventional agar dilution procedures. The organisms were grown overnight in brain-heart infusion (BHI) broth (Difco 0037-01-6) at 36° C. Twofold dilutions of the stock solution ([…]) of the test compound were made in BHI agar obtain a test concentration ranging from […]. The plate was inoculated with approximately 10^4 organisms. It was then incubated at 36° C. for 18 h. the minimal inhibitory concentration was the lowest concentration of the test compound that yielded no visible growth on the plate.

E. coli = experiment: In vitro antibacterial activity, agar dilution MIC; type: cell-based; conditions: Escherichia coli
Experimental: as §1

L. bozemanni = experiment: In vitro antibacterial activity, agar dilution MIC; type: cell-based; conditions: 18 h; L. bozemanni ATCC 33217
Experimental: as §1

H. influenza = experiment: In vitro antibacterial activity, agar dilution MIC; type: cell-based; conditions: 18 h
Experimental: as §1

E. faecalis = experiment: In vitro antibacterial activity, agar dilution MIC; type: cell-based; conditions: Enterococcus faecalis, 18 h
L. pneumophila = experiment: microbe, parasite or virus in culture; type: cell-based; conditions: Legionella pneumophila
N. gonorrhoeae = experiment: In vitro antibacterial activity, agar dilution MIC; type: cell-based; conditions: Neisseria gonorrhoeae, 18 h
B. fragilis = experiment: In vitro antibacterial activity, agar dilution MIC; type: cell-based; conditions: Bacteroides fragilis
P. mirabilis = experiment: In vitro antibacterial activity, agar dilution MIC; type: cell-based; conditions: Proteus mirabilis, 18 h
[3] = compared with 2-unsubstituted aminopyrrolidine analogs

`CC1CC(N)CN1c1cc2c(cc1F)c(=O)c(C(=O)O)cn2-c1ccc(F)cc1F` (stereo not shown) [Epimer of Example 6] gave a solubility ([1]; at pH 7.5 in Ringer's buffer) of 182 µg/mL (≈ 436 µM).

With `CC1CC(N)CN1c1nc2c(cc1F)c(=O)c(C(=O)O)cn2-c1ccc(F)cc1F` (stereo not shown) [Epimer of Example 2] the solubility ([1]; at pH 7.5 in Ringer's buffer) was 340 µg/mL (≈ 813 µM).

`C[C@H]1C[C@H](N)CN1c1nc2c(cc1F)c(=O)c(C(=O)O)cn2-c1ccc(F)cc1F` [Example 2, (2'S,4'S)-7-(4'-Amino-2'-methylpyrrolidin-1'-yl)-1-(o,p-difluorophenyl)-1,4-dihydro-6-fluoro-4-oxo-1,8-naphthyridine-3-Carboxylic Acid] gave an MIC (S. agalactiae) of 0.12 µg/mL (≈ 0.287 µM), an MIC (P. aeruginosa; P. aeruginosa A 5005) of 0.5 µg/mL (≈ 1.2 µM) and an MIC (P. aeruginosa; P. aeruginosa CFS 350F) of 0.5 µg/mL (≈ 1.2 µM). The MIC (P. aeruginosa; P. aeruginosa CFS 387C) was 0.5 µg/mL (≈ 1.2 µM), the MIC (P. aeruginosa; P. aeruginosa CMX 719A) was 2 µg/mL (≈ 4.78 µM) and the MIC (C. difficile; ATCC9689, 18 h, C. difficile ATCC 9689) was 1 µg/mL (≈ 2.39 µM). The MIC (C. difficile; ATCC17857, 18 h, C. difficile ATCC 17857) was 1 µg/mL (≈ 2.39 µM), the MIC (K. pneumoniae; K. pneumoniae CMX 735A) was 0.06 MCG/ML and the MIC (K. pneumoniae; Klebsiella pneumoniae, 18 h, K. pneumoniae CMX 724A, read-out: MIC) was 0.06 µg/mL (≈ 0.143 µM). The MIC (S. pyogenes) was 0.25 µg/mL (≈ 0.598 µM), the “oral absorption properties (in words)” value [2, 3] was “greatly improved oral absorption properties” and the concentration at 0.5 h ([2]; mouse, blood, mice, oral 25 mg/kg, t = 0.5 h, read-out: Blood Level of Compound) was 5900 ng/mL. The concentration at 1 h ([2]; mouse, blood, mice, oral 25 mg/kg, t = 1.0 h, read-out: Blood Level of Compound) was 3200 ng/mL, the concentration at 2 h ([2]; mouse, blood, mice, oral 25 mg/kg, t = 2.0 h, read-out: Blood Level of Compound) was 3300 ng/mL and the concentration at 3 h ([2]; mouse, blood, mice, oral 25 mg/kg, t = 3.0 h, read-out: Blood Level of Compound) was 2800 ng/mL. For the same compound, the concentration at 6 h ([2]; mouse, blood, mice, oral 25 mg/kg, t = 6.0 h, read-out: Blood Level of Compound) was 1300 ng/mL, the concentration at 24 h ([2]; mouse, blood, mice, oral 25 mg/kg, t = 24.0 h, read-out: Blood Level of Compound) was 200 ng/mL and the “serum concentrations / blood levels (in words)” value ([2]; oral 25 mg/kg) was “still achieve better blood”. For the same compound, the “serum concentrations / blood levels (in words)” value ([2]; oral 25 mg/kg, listed as Compound 2) was “higher serum concentrations”, the MIC (S. aureus; 18 h, S. aureus CMX 705) was 0.03 µg/mL (≈ 0.0717 µM) and the MIC (S. aureus; 18 h, S. aureus CMX 730A) was 0.03 µg/mL (≈ 0.0717 µM). The MIC (S. aureus; 18 h, S. aureus GYR 1162) was 0.03 µg/mL (≈ 0.0717 µM), the MIC (S. aureus; ATCC25923, 18 h, S. aureus ATCC 25923) was 0.06 µg/mL (≈ 0.143 µM) and the MIC (E. coli; 18 h, E. coli CMX 733) was 0.03 µg/mL (≈ 0.0717 µM). It also gave an MIC (E. coli; 18 h, E. coli CMX 744A) of 0.03 µg/mL (≈ 0.0717 µM), an MIC (E. coli; 18 h, E. coli CMX 756) of 0.03 µg/mL (≈ 0.0717 µM) and an MIC (E. coli; ATCC25922, 18 h, E. coli ATCC 25922) of 0.03 µg/mL (≈ 0.0717 µM). The MIC (L. bozemanni) was 0.25 µg/mL (≈ 0.598 µM), the MIC (H. influenza; H. influenza 504) was 0.008 µg/mL (≈ 0.0191 µM) and the MIC (H. influenza; H. influenza 519A) was 0.008 µg/mL (≈ 0.0191 µM). For the same compound, the MIC (H. influenza; H. influenza 566A) was 0.008 µg/mL (≈ 0.0191 µM), the MIC (H. influenza; H. influenza 588A, read-out: MIC) was 0.008 µg/mL (≈ 0.0191 µM) and the MIC (E. faecalis; E. faecalis CMX 729G) was 0.25 µg/mL (≈ 0.598 µM). The MIC (E. faecalis; E. faecalis GYR 1166) was 0.5 µg/mL (≈ 1.2 µM), the MIC (L. pneumophila; 18 h) was 0.25 µg/mL (≈ 0.598 µM) and the MIC (L. pneumophila; ATCC33152, 18 h) was 0.25 µg/mL (≈ 0.598 µM). For the same compound, the MIC (N. gonorrhoeae; N. gonorrhoeae 35F AMPI) was 0.004 µg/mL (≈ 0.00956 µM), the MIC (N. gonorrhoeae; N. gonorrhoeae CMX 591) was 0.06 µg/mL (≈ 0.143 µM) and the MIC (B. fragilis; 18 h, B. fragilis AT25285) was 0.5 µg/mL (≈ 1.2 µM). The MIC (B. fragilis; UC2, 18 h, B. fragilis UC-2) was 0.5 µg/mL (≈ 1.2 µM), the MIC (P. mirabilis; P. mirabilis CMX 704F) was 0.25 µg/mL (≈ 0.598 µM) and the MIC (P. mirabilis; P. mirabilis CMX 729B) was 0.25 µg/mL (≈ 0.598 µM). For the same compound, the “AQUEOUS SOLUBILITY” value ([1]; at pH 7.5 in Ringer's buffer) was 0.15 mg/mL and the “solubility properties (in words)” value [1, 3] was “significantly improved aqueous solubility properties”.
